pIC50: −log10 of the molar value.
biological target: T1, biotinylated Avi-POLΘ[2-894] (Homo sapiens, UniProt O75417); test: ATPase assay (ADP-Glo): POLΘ-mediated ATP hydrolysis; settings: read-out: Biochemical ATPase ADPGlo IC50
T1 construct: 1 nM biotinylated Avi-POLΘ[2-894]
T1 sequence (O75417 2-894 limits assumed): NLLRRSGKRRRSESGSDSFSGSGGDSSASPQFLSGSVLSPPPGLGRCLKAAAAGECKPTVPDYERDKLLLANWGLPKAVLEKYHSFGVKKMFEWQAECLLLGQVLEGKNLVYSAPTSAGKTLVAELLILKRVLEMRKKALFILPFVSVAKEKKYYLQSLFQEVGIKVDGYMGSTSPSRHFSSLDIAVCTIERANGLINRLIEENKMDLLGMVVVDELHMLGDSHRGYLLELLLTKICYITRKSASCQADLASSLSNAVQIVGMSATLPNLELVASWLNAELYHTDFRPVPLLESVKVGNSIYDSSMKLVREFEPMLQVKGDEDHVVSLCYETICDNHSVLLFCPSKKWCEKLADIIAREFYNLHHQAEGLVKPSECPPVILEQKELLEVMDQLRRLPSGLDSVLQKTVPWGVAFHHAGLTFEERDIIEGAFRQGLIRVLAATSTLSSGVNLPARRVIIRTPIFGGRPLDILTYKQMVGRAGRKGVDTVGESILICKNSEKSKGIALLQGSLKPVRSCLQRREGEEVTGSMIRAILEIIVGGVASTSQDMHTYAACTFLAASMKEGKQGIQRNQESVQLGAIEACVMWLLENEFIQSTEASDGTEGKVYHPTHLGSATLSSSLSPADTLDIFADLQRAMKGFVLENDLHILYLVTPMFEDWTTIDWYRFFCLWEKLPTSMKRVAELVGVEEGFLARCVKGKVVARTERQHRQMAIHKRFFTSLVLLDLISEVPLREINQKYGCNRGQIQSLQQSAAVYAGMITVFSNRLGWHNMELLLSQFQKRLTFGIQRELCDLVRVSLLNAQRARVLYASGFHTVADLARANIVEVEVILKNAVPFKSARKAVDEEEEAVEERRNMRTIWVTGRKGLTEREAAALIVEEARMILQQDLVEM

| pIC50 | SMILES |
| --- | --- |
| 7.82 to 9.00 | COc1cnc(Cl)cc1-c1cc(C)ncc1C(=O)Nc1nc2ncc(N3CCO[C@H](C)[C@H]3C)nc2s1 (single isomer, unassigned) [Example 402, 2′-chloro-N-(6-((2R or S,3R or S)-2,3-dimethylmorpholino)thiazolo [4,5-b]pyrazin-2-yl)-5′-methoxy-6-methyl-[4,4′-bipyridine]-3-carboxamide] |
| 7.82 to 9.00 | COc1cnc(Cl)cc1-c1cc(C)ncc1C(=O)Nc1nc2ncc(C3CCOC3)nc2s1 (single isomer, unassigned) [Example 479, (S or R)-2′-chloro-5′-methoxy-6-methyl-N-(6-(tetrahydrofuran-3-yl)thiazolo[4,5-b]pyrazin-2-yl)-[4,4′-bipyridine]-3-carboxamide] |
| 7.82 to 9.00 | COc1cnc(Cl)cc1-c1cc(C)ncc1C(=O)Nc1nc2ncc(N3CC(CO)C3)nc2s1 [Example 505, 2′-chloro-N-(6-(3-(hydroxymethyl)azetidin-1-yl)thiazolo[4,5-b]pyrazin-2-yl)-5′-methoxy-6-methyl-[4,4′-bipyridine]-3-carboxamide] |
| 7.30 to 7.82 | COc1cnc(Cl)cc1-c1cc(C)ncc1C(=O)Nc1nc2ncc(N3CCO[C@H]4CCC[C@@H]43)nc2s1 [Example 393, 2′-chloro-N-(6-((4aS,7aS)-hexahydrocyclopenta[b][1,4]oxazin-4(4aH)-yl)thiazolo[4,5-b]pyrazin-2-yl)-5′-methoxy-6-methyl-[4,4′-bipyridine]-3-carboxamide] |
| < 6.05 | Cc1cc(-c2nn(C)c3ccncc23)c(C(=O)Nc2nc3ncc(-c4ccncc4)nc3s2)cn1 [Example 517, 6-methyl-4-(1-methyl-1H-pyrazolo[4,3-c]pyridin-3-yl)-N-(6-(pyridin-4-yl)thiazolo[4,5-b]pyrazin-2-yl)nicotinamide] |
| 7.30 to 7.82 | Cc1cc(-c2c3cnccc3nn2C)c(C(=O)Nc2nc3ncc(-c4ccncc4)nc3s2)cn1 [Example 513, 6-methyl-4-(2-methyl-2H-pyrazolo[4,3-c]pyridin-3-yl)-N-(6-(pyridin-4-yl)thiazolo[4,5-b]pyrazin-2-yl)nicotinamide] |
| 7.82 to 9.00 | COc1cnc(Cl)cc1-c1cc(C)ncc1C(=O)Nc1nc2ncc(N3CC[C@@H](CO)C3)nc2s1 [Example 501, (R)-2′-chloro-N-(6-(3-(hydroxymethyl)pyrrolidin-1-yl)thiazolo[4,5-b]pyrazin-2-yl)-5′-methoxy-6-methyl-[4,4′-bipyridine]-3-carboxamide] |
| 7.30 to 7.82 | COc1cnc(Cl)cc1-c1cc(C)ncc1C(=O)Nc1nc2ncc(N3CCOCC3C(F)F)nc2s1 (centres unmarked) [Example 426, 2′-chloro-N-(6-(3-(difluoromethyl)morpholino)thiazolo[4,5-b]pyrazin-2-yl)-5′-methoxy-6-methyl-[4,4′-bipyridine]-3-carboxamide] |
| 7.82 to 9.00 | COc1cnc(Cl)cc1-c1cc(C)ncc1C(=O)Nc1nc2ncc(N3CC(O)C3)nc2s1 [Example 503, 2′-chloro-N-(6-(3-hydroxyazetidin-1-yl)thiazolo[4,5-b]pyrazin-2-yl)-5′-methoxy-6-methyl-[4,4′-bipyridine]-3-carboxamide] |
| 7.30 to 7.82 | COc1cnc(Cl)cc1-c1cc(C)ncc1C(=O)Nc1nc2ncc(N3CCOC[C@H]3C(F)(F)F)nc2s1 [Example 416, (S)-2′-chloro-5′-methoxy-6-methyl-N-(6-(3-(trifluoromethyl)morpholino)thiazolo[4,5-b]pyrazin-2-yl)-[4,4′-bipyridine]-3-carboxamide] |
| 7.82 to 9.00 | COc1cnc(Cl)cc1-c1cc(C)ncc1C(=O)Nc1nc2ncc(N3CC[C@@H](OC)[C@H](F)C3)nc2s1 [Example 456, 2′-chloro-N-(6-((3R,4R)-3-fluoro-4-methoxypiperidin-1-yl)thiazolo[4,5-b]pyrazin-2-yl)-5′-methoxy-6-methyl-[4,4′-bipyridine]-3-carboxamide] |
| 7.30 to 7.82 | COc1ccccc1-c1cc(C)ncc1C(=O)Nc1nc2ncc(C3CCCCO3)cc2s1 (single isomer, unassigned) [Example 106, (S or R)-4-(2-methoxyphenyl)-6-methyl-N-(6-(tetrahydro-2H-pyran-2-yl)thiazolo[4,5-b]pyridin-2-yl)nicotinamide] |
| 7.82 to 9.00 | COc1cnc(Cl)cc1-c1cc(C)ncc1C(=O)Nc1nc2ncc(N3CC[C@H](OC)[C@H](F)C3)nc2s1 [Example 453, 2′-chloro-N-(6-((3R,4S)-3-fluoro-4-methoxypiperidin-1-yl)thiazolo[4,5-b]pyrazin-2-yl)-5′-methoxy-6-methyl-[4,4′-bipyridine]-3-carboxamide] |
| 7.30 to 7.82 | COc1cnc(Cl)cc1-c1cc(C)ncc1C(=O)Nc1nc2ncc(C3(O)CCOCC3)nc2s1 [Example 390, 2′-chloro-N-(6-(4-hydroxytetrahydro-2H-pyran-4-yl)thiazolo[4,5-b]pyrazin-2-yl)-5′-methoxy-6-methyl-[4,4′-bipyridine]-3-carboxamide] |
| 7.82 to 9.00 | COc1cnc(Cl)cc1-c1cc(C)ncc1C(=O)Nc1nc2ncc(N3CCCC3)nc2s1 [Example 484, 2′-chloro-5′-methoxy-6-methyl-N-(6-(pyrrolidin-1-yl)thiazolo[4,5-b]pyrazin-2-yl)-[4,4′-bipyridine]-3-carboxamide] |
| 7.30 to 7.82 | COc1ccccc1-c1cc(C)ncc1C(=O)Nc1nc2nnc(Cl)cc2s1 [Example 117] |

| pIC50 | SMILES |
| --- | --- |
| 7.30 to 7.82 | COc1cnc(Cl)cc1-c1cc(C)ncc1C(=O)Nc1nc2ncc(C3CCOC3)nc2s1 (single isomer, unassigned) [Example 473, (R or S)-2′-chloro-5′-methoxy-6-methyl-N-(6-(tetrahydrofuran-3-yl)thiazolo[4,5-b]pyrazin-2-yl)-[4,4′-bipyridine]-3-carboxamide] |
| 7.30 to 7.82 | COc1ccc(C#N)cc1-c1cc(C)ncc1C(=O)Nc1nn2cc(C(=O)N(C)C)nc2s1 [Example 316, 2-(4-(5-cyano-2-methoxyphenyl)-6-methylnicotinamido)-N,N-dimethylimidazo[2,1-b][1,3,4]thiadiazole-6-carboxamide] |
| 7.30 to 7.82 | CNC1CCN(c2cnc3nc(NC(=O)c4cnc(C)cc4-c4cc(Cl)ncc4OC)sc3n2)CC1 [Example 477, 2′-chloro-5′-methoxy-6-methyl-N-(6-(4-(methylamino)piperidin-1-yl)thiazolo[4,5-b]pyrazin-2-yl)-[4,4′-bipyridine]-3-carboxamide] |
| 7.82 to 9.00 | COc1cnc(Cl)cc1-c1cc(C)ncc1C(=O)Nc1nc2ncc(N3C[C@@H](C)O[C@@H](C)C3)nc2s1 [Example 437, 2′-chloro-N-(6-((2S,6R)-2,6-dimethylmorpholino)thiazolo [4,5-b]pyrazin-2-yl)-5′-methoxy-6-methyl-[4,4′-bipyridine]-3-carboxamide] |
| < 6.05 | CC(=O)N1CC2(C1)CN(c1cc(C)ncc1C(=O)Nc1nc3ncc(-c4ccncc4)cc3s1)C2 [Example 202] |
| 7.30 to 7.82 | COc1cnc(Cl)cc1-c1cc(C)ncc1C(=O)Nc1nc2ncc(N3CC[C@H](CO)C3)nc2s1 [Example 500, (S)-2′-chloro-N-(6-(3-(hydroxymethyl)pyrrolidin-1-yl)thiazolo[4,5-b]pyrazin-2-yl)-5′-methoxy-6-methyl-[4,4'-bipyridine]-3-carboxamide] |
| 7.30 to 7.82 | COc1cnc(Cl)cc1-c1cc(C)ncc1C(=O)Nc1nc2ncc(N3CC[C@@](C)(OC)[C@@H](F)C3)nc2s1 (single isomer, unassigned) [Example 363, 2′-chloro-N-(6-((3S or R,4R or S)-3-fluoro-4-methoxy-4-methylpiperidin-1-yl)thiazolo[4,5-b]pyrazin-2-yl)-5′-methoxy-6-methyl-[4,4′-bipyridine]-3-carboxamide] |
| 7.30 to 7.82 | COc1cnc(Cl)cc1-c1cc(C)ncc1C(=O)Nc1nn2cc(C3CCC(CO)C3)nc2s1 (racemic) [Example 270] |
| 7.30 to 7.82 | COc1cnc(Cl)cc1-c1cc(C)ncc1C(=O)Nc1nc2ncc(N3[C@H](C)COC[C@@H]3C)nc2s1 [Example 404, 2′-chloro-N-(6-((3R,5S)-3,5-dimethylmorpholino)thiazolo [4,5-b]pyrazin-2-yl)-5′-methoxy-6-methyl-[4,4′-bipyridine]-3-carboxamide] |
| 7.82 to 9.00 | COc1cnc(Cl)cc1-c1cc(C)ncc1C(=O)Nc1nc2ncc([C@H]3CC[C@@H](C#N)CC3)nc2s1 [Example 451, 2′-chloro-N-(6-((1s,4s)-4-cyanocyclohexyl)thiazolo[4,5-b]pyrazin-2-yl)-5′-methoxy-6-methyl-[4,4′-bipyridine]-3-carboxamide] |
| 6.05 to 6.82 | COc1cnc(Cl)cc1-c1cc(Oc2cccc(NC(=O)OC(C)(C)C)c2)ncc1C(=O)Nc1nn2cc(C3CC3)nc2s1 [Example 495, tert-butyl (3-((2′-chloro-5-((6-cyclopropylimidazo[2,1-b][1,3,4]thiadiazol-2-yl)carbamoyl)-5′-methoxy-[4,4′-bipyridin]-2-yl)oxy)phenyl)carbamate] |
| 7.82 to 9.00 | COc1cnc(Cl)cc1-c1cc(C)ncc1C(=O)Nc1nn2cc(C3CCCCC3)nc2s1 [Example 315] |
| 7.30 to 7.82 | COc1cnc(Cl)cc1-c1cc(C)ncc1C(=O)Nc1nc2ncc(N3CCO[C@@H](C)[C@@H]3C)nc2s1 (single isomer, unassigned) [Example 415, 2′-chloro-N-(6-((2S or R,3S or R)-2,3-dimethylmorpholino)thiazolo [4,5-b]pyrazin-2-yl)-5′-methoxy-6-methyl-[4,4′-bipyridine]-3-carboxamide] |
| 7.30 to 7.82 | COc1cnc(Cl)cc1-c1cc(Oc2cccc(N)c2)ncc1C(=O)Nc1nn2cc(C3CC3)nc2s1 [Example 494, 6-(3-aminophenoxy)-2′-chloro-N-(6-cyclopropylimidazo[2,1-b][1,3,4]thiadiazol-2-yl)-5′-methoxy-[4,4′-bipyridine]-3-carboxamide] |
| 7.82 to 9.00 | COc1cnc(Cl)cc1-c1cc(C)ncc1C(=O)Nc1nc2ncc(N3CCOC(C)C3C)nc2s1 (centres unmarked) [Example 425, 2′-chloro-N-(6-(2,3-dimethylmorpholino)thiazolo [4,5-b]pyrazin-2-yl)-5′-methoxy-6-methyl-[4,4′-bipyridine]-3-carboxamide] |

| SMILES | pIC50 |
| --- | --- |
| COc1cnc(Cl)cc1-c1cc(C)ncc1C(=O)Nc1nn2cc(C(=O)N3CC[C@H](O)C3)nc2s1 [Example 36, (S)-2′-chloro-N-(6-(3-hydroxypyrrolidine-1-carbonyl)imidazo[2,1-b][1,3,4]thiadiazol-2-y1)-5′-methoxy-6-methyl-[4,4′-bipyridine]-3-carboxamide] | 7.30 to 7.82 |

From US20260015360A1 (MOMA Therapeutics, Inc., priority 2023, published 2026)
